Reference: patent publication US6217879A, “Enzyme-decomposed materials of laver and uses thereof” (Shirako Co., Ltd., priority 1998, dated 2001)

Assay: Anti-oxidant action, linoleic acid peroxide number by rhodan iron method
Conditions: 3 mg α-tocopherol, 50° C.
Description: The respective fractions were measured for anti-oxidant activity in the following manner.
This solution was sealed in a test tube equipped with a screw and left in a thermostatic chamber at 50° C., and the peroxide number of the linoleic acid was measured every 48 hours by the rhodan iron method. […] The number of days elapsed until the absorbance at 500 nm reached 0.35 was assumed to be induction period (days).

## Cc1c(C)c2c(c(C)c1O)CCC(C)(CCCC(C)CCCC(C)CCCC(C)C)O2 (stereo not drawn) [α-tocopherol]
  Induction period (days until absorbance at 500 nm reached 0.35): 8 days
